From PubChem BioAssay (NCI)
Several values for one entry are separate records, joined by “and”; a condition that tells them apart may be missing. Equal values may be shown once.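 Cultured in 96-well plates, cells were exposed to test compound for 48 hours across five concentrations. Here, GI50 denotes the concentration required for 50% inhibition of growth. TGI denotes the concentration required for complete inhibition of growth.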

What was measured:
Assay in all cases: NCI anticancer screen, dose series, 48 h
LOX IMVI melanoma = system: LOX IMVI melanoma
ACHN renal = system: ACHN renal
MCF7 breast = system: MCF7 breast
SF-268 CNS = system: SF-268 CNS
SN12C renal = system: SN12C renal
SR leukemia = system: SR leukemia
SK-OV-3 ovarian = system: SK-OV-3 ovarian
NCI-H522 lung = system: NCI-H522 lung
MDA-MB-435 = system: MDA-MB-435
A549 NSCLC = system: A549 NSCLC

SMILES | GI50 (LOX IMVI melanoma) [µM] | TGI (LOX IMVI melanoma) [µM] | GI50 (ACHN renal) [µM] | TGI (ACHN renal) | GI50 (MCF7 breast) [µM] | TGI (MCF7 breast) [µM] | GI50 (SF-268 CNS) [µM] | TGI (SF-268 CNS) | GI50 (SN12C renal) [µM] | TGI (SN12C renal) [µM] | GI50 (SR leukemia) [µM] | TGI (SR leukemia) [µM] | GI50 (SK-OV-3 ovarian) [µM] | TGI (SK-OV-3 ovarian) | GI50 (NCI-H522 lung) | TGI (NCI-H522 lung) | GI50 (MDA-MB-435) [µM] | TGI (MDA-MB-435) [µM] | GI50 (A549 NSCLC) [µM] | TGI (A549 NSCLC) [µM]
CCN(C(=O)CCl)C(C)(C)C(SSSC(c1ccc(Cl)cc1)C(C)(C)N(CC)C(=O)CCl)c1ccc(Cl)cc1 (stereo not drawn) | 3.1 | 10.7 | 4.78 | 16.9 µM | 5.09 | 21.9 | 10.5 | 23.9 µM | 12.5 | 26.4 | 2.32 | 5.15 | 15.3 | 31.5 µM | 2.06 µM | 3.87 µM | 2.14 | 5.49 | 15 | 31.1
ICCC(c1ccccc1)(c1ccccc1)c1ccccc1 | 4.16 | 19.2 | 12 | 24.8 µM | 10.6 | 26.7 | 4.4 | 16.8 µM | 12.2 | 27.2 | 1.93 | 5 | 14.7 | 27.8 µM | 8.35 µM | 22.7 µM | 2.14 | 6.72 | 5.92 | 19.6
COc1cc2ccnc3c2c(c1OC)-c1ccc(=O)ccc1-3 | 21 | 46.5 | 19.3 | 44.6 µM | 14.9 | > 100 | 39.1 | > 100 µM | 31 | > 100 | 2.95 | 21.4 | 41.5 | > 100 µM | 23.4 µM | 71.3 µM | 31.5 | 90.6 | 18.2 | 55.4
Nc1c(C(=O)c2cccc(C#CCN3CCOCC3)c2)cnn1-c1ccc(F)cc1 | > 25 | > 25 | > 25 | > 25 µM | 11.7 | > 25 | > 25 | > 25 µM | > 25 | > 25 | 4.09 | > 25 | > 25 | > 25 µM | > 10.9 µM | > 23.6 µM | 4.41 | > 17.4 | > 16.6 | > 25
O=C(O)c1ccc(NCc2nc3cc4ccccc4cc3[nH]2)cc1 | – | > 100 | – | > 100 µM | – | 46.9 | – | > 100 µM | – | > 100 | – | > 100 | – | > 100 µM | – | > 100 µM | – | > 100 | – | > 100
N#CSCc1c(Cl)cccc1Cl | 3.55 | > 100 | 5.14 | > 100 µM | 3.27 | > 100 | 4.9 | > 65.5 µM | 4.5 | > 100 | – | > 24 | 34 | > 100 µM | 2.07 µM | 6.33 µM | 2.11 | 5.63 | 3.31 | > 100
CN1CCN(Cc2ccc(NC(=O)c3nc4ccc5[nH]ncc5c4c4c3CCC4)cc2C(F)(F)F)CC1 | 0.832 | 1.54 | 0.861 | 1.55 µM | 0.906 | 1.82 | 7.97 | 16.5 µM | 0.873 | 1.64 | 1.1 | 2.68 | 8.28 | 15.5 µM | 0.981 µM | 2.31 µM | 0.926 | 1.71 | 0.92 | 1.83
O=C(OCC1OC(OC(=O)c2cc(O)c(O)c(OC(=O)c3cc(O)c(O)c(O)c3)c2)C(OC(=O)c2cc(O)c(O)c(OC(=O)c3cc(O)c(O)c(O)c3)c2)C(OC(=O)c2cc(O)c(O)c(OC(=O)c3cc(O)c(O)c(O)c3)c2)C1OC(=O)c1cc(O)c(O)c(OC(=O)c2cc(O)c(O)c(O)c2)c1)c1cc(O)c(O)c(OC(=O)c2cc(O)c(O)c(O)c2)c1 (stereo not drawn) | 10 | 25.4 | 12.3 | 32.8 µM | 13.2 | 34.7 | 7.21 | 31.3 µM | 11.4 | 29.8 | 21 | > 50 | 17.3 | > 50 µM | 8.71 µM | 29.7 µM | 10.9 | 30.5 | 20.7 | > 50
O=C(NNc1ccccc1)OCc1ccccc1 | 15.2 | > 100 | 6.9 | > 100 µM | 26.2 | > 100 | 9.27 | > 100 µM | 73.8 | > 100 | 41.3 | > 100 | > 100 | > 100 µM | 33.6 µM | > 100 µM | 4.13 | > 100 | 9.18 | > 100
c1ccc(-c2nnc(Nc3ccc4c(c3)OCCO4)o2)c(NCc2ccncc2)c1 | 0.0459 | > 100 | 0.0784 | 14.4 µM | 0.0904 | > 38.8 | 0.0696 | > 67.6 µM | 0.0579 | > 64.6 | < 0.01 | > 46.5 | 0.0191 | 0.0856 µM | < 0.01 µM | 0.86 µM | < 0.01 | 0.0171 | 0.0388 | 15.4
C/C(=N\NC(=O)c1ccccc1O)c1cccc(/C(C)=N/NC(=O)c2ccccc2O)n1 | 0.505 | > 100 | 0.668 | 50.5 µM and > 62.9 µM | 7.8 | > 100 | 0.28 | 56.5 µM and > 100 µM | 0.731 | > 100 | – | > 100 | 1.31 | 36.3 µM and > 100 µM | 4.75 µM and 0.856 µM | 27.8 µM and > 100 µM | 0.767 | > 100 | > 70.8 | > 100
O=C(O)CCCSc1nc2ccccc2s1 | – | > 100 | – | > 100 µM | – | > 100 | – | > 100 µM | – | > 100 | – | > 100 | – | > 100 µM | – | > 100 µM | – | > 100 | – | > 100
COc1ccc2[nH]c(=O)c(/C=C/C(=O)/C=C/c3ccc(O)c(OC)c3)cc2c1 | 1.54 | 3.18 | 1.68 | 3.13 µM | 0.388 | 1.89 | 2.25 | 7.14 µM | 1.89 | 4.49 | 0.381 | > 100 | 2.79 | 9.82 µM | 1.74 µM | 3.87 µM | 0.301 | 1.3 | 2.24 | 6.35
